Data taken from ChEMBL document CHEMBL1201862, “PubChem BioAssay data set” (2004).
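96-well plates; 48 h exposure; 5 concentrations. Endpoints by linear interpolation between flanking doses. Not reached: highest tested concentration assigned. Abbreviation: GI50, concentration required for 50% inhibition of growth.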 Activity calls are given as the source filed them. Rule as the data show it: active = GI50 up to about 1.1 µM and inactive = higher.

What was measured:
Assay in all cases: NCI tumour cell line growth inhibition, 48 h
786-0 = test system: 786-0
A498 = test system: A498
A549 = test system: A549
ACHN = test system: ACHN
BT-549 = test system: BT-549
CAKI-1 = test system: CAKI-1
CCRF-CEM = test system: CCRF-CEM
COLO 205 = test system: COLO 205
DU-145 = test system: DU-145
EKVX = test system: EKVX
HCT-116 = test system: HCT-116
HCT-15 = test system: HCT-15
HL-60 = test system: HL-60
HOP-62 = test system: HOP-62
HOP-92 = test system: HOP-92
HT-29 = test system: HT-29
IGROV-1 = test system: IGROV-1
K562 = test system: K562
KM12 = test system: KM12
LOX IMVI = test system: LOX IMVI
M14 = test system: M14
MCF7 = test system: MCF7
MDA-MB-231 = test system: MDA-MB-231
MDA-MB-435 = test system: MDA-MB-435
MDA-N = test system: MDA-N
MOLT-4 = test system: MOLT-4
Malme-3M = test system: Malme-3M
NCI-H226 = test system: NCI-H226
NCI-H23 = test system: NCI-H23
NCI-H460 = test system: NCI-H460
NCI-H522 = test system: NCI-H522
NCI/ADR-RES = test system: NCI/ADR-RES
OVCAR-3 = test system: OVCAR-3
OVCAR-4 = test system: OVCAR-4
OVCAR-5 = test system: OVCAR-5
OVCAR-8 = test system: OVCAR-8
PC-3 = test system: PC-3
RPMI-8226 = test system: RPMI-8226
RXF 393 = test system: RXF 393
SF-295 = test system: SF-295
SK-MEL-28 = test system: SK-MEL-28
SK-MEL-2 = test system: SK-MEL-2
SK-MEL-5 = test system: SK-MEL-5
SN12C = test system: SN12C
SNB-19 = test system: SNB-19
SW-620 = test system: SW-620
T47D = test system: T47D
TK-10 = test system: TK-10
U-251 = test system: U-251
UACC-257 = test system: UACC-257
UACC-62 = test system: UACC-62
UO-31 = test system: UO-31
HCC 2998 = test system: HCC 2998
SK-OV-3 = test system: SK-OV-3
SNB-75 = test system: SNB-75
SR = test system: SR
SF-268 = test system: SF-268
SF-539 = test system: SF-539

Question: NC(=S)Nc1ccc(S(=O)(=O)Nc2ccc(S(N)(=O)=O)cc2)cc1 was tested. Which GI50 (786-0) did it give?
Answer: > 100 µM (inactive)

Question: What about the GI50 (A498) of the same compound?
Answer: > 100 µM (inactive)

Question: What about the GI50 (A549) of the same compound?
Answer: > 100 µM (inactive)

Question: And the GI50 (ACHN)?
Answer: > 100 µM (inactive)

Question: What about the GI50 (BT-549) of the same compound?
Answer: > 100 µM (inactive)

Question: And the GI50 (CAKI-1)?
Answer: > 100 µM (inactive)

Question: And the GI50 (CCRF-CEM)?
Answer: > 100 µM (inactive)

Question: And the GI50 (COLO 205)?
Answer: > 100 µM (inactive)

Question: What about the GI50 (DU-145) of the same compound?
Answer: > 100 µM (inactive)

Question: And the GI50 (EKVX)?
Answer: > 100 µM (inactive)

Question: And the GI50 (HCT-116)?
Answer: > 100 µM (inactive)

Question: What about the GI50 (HCT-15) of the same compound?
Answer: > 100 µM

Question: What about the GI50 (HL-60) of the same compound?
Answer: > 100 µM (inactive)

Question: And the GI50 (HOP-62)?
Answer: > 100 µM (inactive)

Question: What about the GI50 (HOP-92) of the same compound?
Answer: > 100 µM (inactive)

Question: What about the GI50 (HT-29) of the same compound?
Answer: > 100 µM (inactive)

Question: And the GI50 (IGROV-1)?
Answer: > 100 µM (inactive)

Question: And the GI50 (K562)?
Answer: > 100 µM (inactive)

Question: And the GI50 (KM12)?
Answer: > 100 µM (inactive)

Question: What about the GI50 (LOX IMVI) of the same compound?
Answer: > 100 µM (inactive)

Question: What about the GI50 (M14) of the same compound?
Answer: > 100 µM (inactive)

Question: And the GI50 (MCF7)?
Answer: > 100 µM (inactive)

Question: What about the GI50 (MDA-MB-231) of the same compound?
Answer: > 100 µM (inactive)

Question: And the GI50 (MDA-MB-435)?
Answer: > 100 µM (inactive)

Question: And the GI50 (MDA-N)?
Answer: > 100 µM (inactive)

Question: What about the GI50 (MOLT-4) of the same compound?
Answer: > 100 µM (inactive)

Question: What about the GI50 (Malme-3M) of the same compound?
Answer: > 100 µM (inactive)

Question: And the GI50 (NCI-H226)?
Answer: > 100 µM (inactive)

Question: And the GI50 (NCI-H23)?
Answer: > 100 µM (inactive)

Question: And the GI50 (NCI-H460)?
Answer: > 100 µM (inactive)

Question: What about the GI50 (NCI-H522) of the same compound?
Answer: > 100 µM (inactive)

Question: And the GI50 (NCI/ADR-RES)?
Answer: > 100 µM (inactive)

Question: And the GI50 (OVCAR-3)?
Answer: > 100 µM (inactive)

Question: And the GI50 (OVCAR-4)?
Answer: > 100 µM (inactive)

Question: What about the GI50 (OVCAR-5) of the same compound?
Answer: > 100 µM (inactive)

Question: And the GI50 (OVCAR-8)?
Answer: > 100 µM (inactive)

Question: And the GI50 (PC-3)?
Answer: > 100 µM (inactive)

Question: What about the GI50 (RPMI-8226) of the same compound?
Answer: > 100 µM (inactive)

Question: And the GI50 (RXF 393)?
Answer: > 100 µM (inactive)

Question: What about the GI50 (SF-295) of the same compound?
Answer: > 100 µM (inactive)

Question: What about the GI50 (SK-MEL-28) of the same compound?
Answer: > 100 µM (inactive)

Question: What about the GI50 (SK-MEL-2) of the same compound?
Answer: > 100 µM (inactive)

Question: And the GI50 (SK-MEL-5)?
Answer: > 100 µM (inactive)

Question: What about the GI50 (SN12C) of the same compound?
Answer: > 100 µM (inactive)

Question: What about the GI50 (SNB-19) of the same compound?
Answer: > 100 µM (inactive)

Question: And the GI50 (SW-620)?
Answer: > 100 µM (inactive)

Question: And the GI50 (T47D)?
Answer: > 100 µM (inactive)

Question: And the GI50 (TK-10)?
Answer: > 100 µM (inactive)

Question: And the GI50 (U-251)?
Answer: > 100 µM (inactive)

Question: What about the GI50 (UACC-257) of the same compound?
Answer: > 100 µM (inactive)

Question: What about the GI50 (UACC-62) of the same compound?
Answer: > 100 µM (inactive)

Question: And the GI50 (UO-31)?
Answer: > 100 µM (inactive)

Question: What does the source list for CCOC(=O)C(O)(CC1=NC(C(=O)OC)(C(=O)OC)C(c2cccc(C=O)c2)O1)C(=O)OCC (configuration not stated)?
Answer: GI50 (786-0): > 100 µM (inactive); GI50 (A498): > 100 µM (inactive); GI50 (A549): > 100 µM (inactive); GI50 (ACHN): > 100 µM (inactive); GI50 (BT-549): > 100 µM (inactive); GI50 (CAKI-1): > 100 µM (inactive); GI50 (CCRF-CEM): > 100 µM (inactive); GI50 (COLO 205): > 100 µM (inactive); GI50 (DU-145): > 100 µM (inactive); GI50 (EKVX): > 100 µM (inactive); GI50 (HCC 2998): > 100 µM (inactive); GI50 (HCT-116): > 100 µM (inactive); GI50 (HCT-15): > 100 µM; GI50 (HL-60): 25.3 µM (inactive); GI50 (HOP-62): > 100 µM (inactive); GI50 (HOP-92): > 100 µM (inactive); GI50 (HT-29): > 100 µM (inactive); GI50 (IGROV-1): > 100 µM (inactive); GI50 (K562): > 100 µM (inactive); GI50 (KM12): > 100 µM (inactive); GI50 (LOX IMVI): > 100 µM (inactive); GI50 (M14): > 100 µM (inactive); GI50 (MCF7): > 100 µM (inactive); GI50 (MDA-MB-435): > 100 µM (inactive); GI50 (MDA-N): > 100 µM (inactive); GI50 (MOLT-4): > 100 µM (inactive); GI50 (NCI-H226): > 100 µM (inactive); GI50 (NCI-H23): > 100 µM (inactive); GI50 (NCI-H460): > 100 µM (inactive); GI50 (NCI/ADR-RES): > 100 µM (inactive); GI50 (OVCAR-3): > 100 µM (inactive); GI50 (OVCAR-4): > 100 µM (inactive); GI50 (OVCAR-5): > 100 µM (inactive); GI50 (OVCAR-8): > 100 µM (inactive); GI50 (PC-3): > 100 µM (inactive); GI50 (RPMI-8226): > 100 µM (inactive); GI50 (RXF 393): > 100 µM (inactive); GI50 (SK-MEL-28): > 100 µM (inactive); GI50 (SK-MEL-2): > 100 µM (inactive); GI50 (SK-MEL-5): > 100 µM (inactive); GI50 (SK-OV-3): > 100 µM (inactive); GI50 (SN12C): > 100 µM (inactive); GI50 (SNB-19): > 100 µM (inactive); GI50 (SNB-75): > 100 µM (inactive); GI50 (SR): > 100 µM (inactive); GI50 (SW-620): > 100 µM (inactive); GI50 (T47D): > 100 µM (inactive); GI50 (TK-10): > 100 µM (inactive); GI50 (U-251): > 100 µM (inactive); GI50 (UACC-257): > 100 µM (inactive); GI50 (UACC-62): > 100 µM (inactive); GI50 (UO-31): > 100 µM (inactive)

Question: What does the source list for COc1cc([C@@H]2c3cc4c(cc3C[C@@H]3COC(=O)C32)OCO4)cc(OC)c1O (some centres not stated)?
Answer: GI50 (786-0): 0.0299 µM (active); GI50 (A498): 0.211 µM (active); GI50 (A549): 0.0668 µM (active); GI50 (ACHN): 0.03 µM (active); GI50 (BT-549): 0.038 µM (active); GI50 (CAKI-1): 0.0183 µM (active); GI50 (CCRF-CEM): 0.0228 µM (active); GI50 (COLO 205): 0.0306 µM (active); GI50 (DU-145): 0.0973 µM (active); GI50 (EKVX): 0.0284 µM (active); GI50 (HCT-116): 0.0297 µM (active); GI50 (HCT-15): 0.0294 µM; GI50 (HL-60): 0.0274 µM (active); GI50 (HOP-62): 0.03 µM (active); GI50 (HOP-92): 0.0957 µM (active); GI50 (HT-29): 0.034 µM (active); GI50 (IGROV-1): 0.0254 µM (active); GI50 (K562): 0.031 µM (active); GI50 (KM12): 0.0277 µM (active); GI50 (LOX IMVI): 0.0426 µM (active); GI50 (M14): 0.0344 µM (active); GI50 (MCF7): 0.017 µM (active); GI50 (MDA-MB-435): < 0.01 µM (active); GI50 (MDA-N): 0.0113 µM (active); GI50 (MOLT-4): 0.0271 µM (active); GI50 (Malme-3M): 0.0121 µM (active); GI50 (NCI-H226): 1.39 µM (inactive); GI50 (NCI-H23): 0.21 µM (active); GI50 (NCI-H460): 0.032 µM (active); GI50 (NCI-H522): 0.0119 µM (active); GI50 (NCI/ADR-RES): 0.0187 µM (active); GI50 (OVCAR-3): 0.0188 µM (active); GI50 (PC-3): 0.0234 µM (active); GI50 (RPMI-8226): 0.0269 µM (active); GI50 (RXF 393): 0.0165 µM (active); GI50 (SF-268): 0.0429 µM (active); GI50 (SF-295): 0.0208 µM (active); GI50 (SF-539): 0.0188 µM (active); GI50 (SK-MEL-5): 0.0221 µM (active); GI50 (SK-OV-3): 0.0287 µM (active); GI50 (SN12C): 0.143 µM (active); GI50 (SR): 0.011 µM (active); GI50 (SW-620): 0.0306 µM (active); GI50 (TK-10): 0.039 µM (active); GI50 (U-251): 0.0432 µM (active); GI50 (UACC-257): 87.7 µM (inactive); GI50 (UACC-62): 0.0263 µM (active); GI50 (UO-31): 0.0562 µM (active)
